This note sets out measurements from US20080207614A1, “QUINAZOLINE DERIVATIVES FOR THE TREATMENT AND PREVENTION OF DIABETES AND OBESITY” (SK CHEMICALS CO., LTD., priority 2004, published 2008).

The structures appear in SMILES notation.

The assay concerns C2C12 muscle cells. The experiment in a line: Analysis of glucose absorption (2-deoxyglucose) in differentiated C2C12 muscle cells. The class given is cell-based. The note with it: test materials 10 μM, times relative to control group. How it is done:
C2C12 muscle cells were cultured in DMEM (Dulbecco's modified Eagle's medium) containing 10% bovine calf serum. When the cell density increased to about 85 to 90%, the culture medium was replaced with 1% bovine calf serum and cell differentiation was induced for 6 days. Completely differentiated cells were cultured for 3 hours with Krebs-Ringer buffer (KRB) containing 5 mM glucose. The test materials were added at a concentration of 10 μM. 30 minutes later, 0.2 μCi 2-deoxyglucose was added. KRB was removed 20 minutes later and the cells were washed for 3 times with cold PBS. The cells were lysed with 0.5N NaOH and counted using a radioactive counter.
Consider `Cc1ccccc1Nc1nc(-c2ccccc2)nc2ccccc12` [Compound 71, (2-Phenylquinazolino-4-yl)-o-tollylamine], for which the Glucose absorption is recorded as 1.0.
Regarding `CC(Nc1nc(-c2ccccc2)nc2ccccc12)c1ccccc1` (centres unmarked) [Compound 87, (1-Phenylethyl)-(2-phenylquinazolino-4-yl)-amine], the Glucose absorption was 1.0.
The result for `Fc1cccc(CCNc2nc(-c3ccncc3)nc3ccccc23)c1` [Compound 256, [2-(3-Fluorophenyl)-ethyl]-(2-pyridino-4-ylquinazolino-4-yl)-amine] reads 0.6; that for `c1ccc(CNc2nc(-c3cccnc3)nc3ccccc23)cc1` [Compound 235, Benzyl-(2-pyridino-3-ylquinazolino-4-yl)-amine], 1.2.
`Clc1ccc(Nc2nc(-c3ccccc3)nc3ccccc23)cc1` [Compound 162, (4-Chlorophenyl)-(2-phenylquinazolino-4-yl)-amine] returned a Glucose absorption of 1.3.
In turn, `OCCNc1nc(Cc2ccccc2)nc2ccccc12` [Compound 222, 2-(2-Benzylquinazolino-4-ylamino)-ethanol] came in with a Glucose absorption of 1.2.
Under `COc1cccc(CCNc2nc(-c3ccccc3)nc3ccccc23)c1` [Compound 120, [2-(3-Methoxyphenyl)-ethyl]-(2-phenylquinazolino-4-yl)-amine] stands 1.4.
Take `Brc1cccc(Nc2nc(-c3ccccc3)nc3ccccc23)c1` [Compound 83, (3-Bromophenyl)-(2-phenylquinazolino-4-yl)-amine]: the Glucose absorption stood at 0.7.
The result for `c1ccc2c(CNc3nc(C4CCCCC4)nc4ccccc34)cccc2c1` [Compound 205, (2-Cyclohexylquinazolino-4-yl)-naphthaleno-1-ylmethylamine] reads 1.3; that for `CC(C)CNc1nc(-c2ccccc2)nc2ccccc12` [Compound 55, Isobutyl-(2-phenylquinazolino-4-yl)-amine], 1.2.
Regarding `OCCOCCNc1nc(-c2ccncc2)nc2ccccc12` [Compound 257, 2-[2-(2-Pyridino-4-ylquinazolino-4-ylamino)-ethoxy]-ethanol], the Glucose absorption was 1.4.
`c1ccc(-c2nc(NCc3ccc4c(c3)OCO4)c3ccccc3n2)cc1` [Compound 65, Benzo[1,3]dioxol-5-ylmethyl-(2-phenylquinazolino-4-yl)-amine] displayed a Glucose absorption of 1.4.
Under `CCSc1nc(NCCCN2CCOCC2)c2ccccc2n1` [Compound 36, (2-Ethylsulfanylquinazolino-4-yl)-(3-morpholino-4-ylpropyl)-amine] stands 1.4; under `FC(F)(F)c1cccc(CNc2nc(-c3ccc(Cl)cc3)nc3ccccc23)c1` [Compound 262, [2-(4-Chlorophenyl)-quinazolino-4-yl]-(3-trifluoromethylbenzyl)-amine], 1.1.
The result for `c1ccc(CCNc2nc(-c3cccnc3)nc3ccccc23)cc1` [Compound 239, Phenethyl-(2-pyridino-3-ylquinazolino-4-yl)-amine] reads 0.5; that for `COc1ccc(CCNc2nc(-c3ccccc3)nc3ccccc23)cc1OC` [Compound 107, [2-(3,4-Dimethoxyphenyl)-ethyl]-(2-phenylquinazolino-4-yl)-amine], 0.4; that for `c1ccc(-c2nc(NCCCN3CCOCC3)c3ccccc3n2)cc1` [Compound 156, (3-Morpholino-4-ylpropyl)-(2-phenylquinazolino-4-yl)-amine], 1.1.
`CC(C)c1ccc(Nc2nc(-c3ccccc3)nc3ccccc23)cc1` [Compound 72, (4-Isopropyl-phenyl)-(2-phenylquinazolino-4-yl)-amine] came in with a Glucose absorption of 1.1.
The result for `Clc1ccc(CNc2nc(-c3ccccc3)nc3ccccc23)cc1Cl` [Compound 89, (3,4-Dichlorobenzyl)-(2-phenylquinazolino-4-yl)-amine] reads 1.4; that for `c1ccc(-c2nc(NC3CCCC3)c3ccccc3n2)cc1` [Compound 95, Cyclopentyl-(2-phenylquinazolino-4-yl)-amine], 1.2.
The result for `c1ccc(CCNc2nc(-c3ccncc3)nc3ccccc23)cc1` [Compound 251, Phenethyl-(2-pyridino-4-ylquinazolino-4-yl)-amine] reads 0.6; that for `Fc1cccc(CNc2nc(-c3ccccn3)nc3ccccc23)c1` [Compound 231, (3-Fluorobenzyl)-(2-pyridino-2-ylquinazolino-4-yl)-amine], 1.2; that for `CC(C)OCCCNc1nc(-c2ccccc2)nc2ccccc12` [Compound 62, (3-Isopropoxypropyl)-(2-phenylquinazolino-4-yl)-amine], 1.1.
In turn, `Fc1cccc(CCNc2nc(Cc3ccccc3)nc3ccccc23)c1` [Compound 220, (2-Benzylquinazolino-4-yl)-[2-(3-fluorophenyl)-ethyl]-amine] gave a Glucose absorption of 2.5.
`CC(C)(C)c1nc(NCCO)c2ccccc2n1` [Compound 198, 2-(2-tert-Butylquinazolino-4-ylamino)-ethanol] gave a Glucose absorption of 1.4.
The result for `c1ccc(CCCCNc2nc(C3CCCCC3)nc3ccccc23)cc1` [Compound 204, (2-Cyclohexylquinazolino-4-yl)-(4-phenylbutyl)-amine] reads 1.2; that for `COc1cccc(OC)c1CNc1nc(-c2ccccc2)nc2ccccc12` [Compound 154, (2,6-Dimethoxybenzyl)-(2-phenylquinazolino-4-yl)-amine], 2.5; that for `Fc1cccc(CNc2nc(C3CCCCC3)nc3ccccc23)c1` [Compound 207, (2-Cyclohexylquinazolino-4-yl)-(3-fluorobenzyl)-amine], 2.0.
With `CCSc1nc(NCCCc2ccccc2)c2ccccc2n1` [Compound 32, (2-Ethylsulfanylquinazoline-4-yl)-(3-phenylpropyl)-amine], the Glucose absorption was 1.1.
Under `CCSc1nc(NCC(C)C)c2ccccc2n1` [Compound 21, (2-Ethylsulfanylquinazolino-4-yl)-isobutylamine] stands 1.2.
Under `OCCNc1nc(-c2ccc(Cl)cc2)nc2ccccc12` [Compound 270, 2-[2-(4-Chlorophenyl)-quinazolino-4-ylamino]-ethanol] stands 1.1.
Compound `CCSc1nc(NCCCN2CCCCC2C)c2ccccc2n1` (centres unmarked) [Compound 48, (2-Ethylsulfanylquinazolino-4-yl)-[3-(2-methyl-piperidino-1-yl)-propyl]-amine] had a Glucose absorption of 1.0.
For the compound `CC(C)c1nc(NCCO)c2ccccc2n1` [Compound 186, 2-(2-Isopropylquinazolino-4-ylamino)-ethanol], the Glucose absorption was 1.0.
The result for `FC(F)(F)c1ccccc1CNc1nc(-c2ccccc2)nc2ccccc12` [Compound 98, (2-Phenylquinazolino-4-yl)-(2-trifluoromethylbenzyl)-amine] reads 1.2.
Under `COc1ccc(OC)c(CNc2nc(Cc3ccccc3)nc3ccccc23)c1` [Compound 334, (2-Benzylquinazolino-4-yl)-(2,5-dimethoxybenzyl)-amine] stands 1.1.
